“Also recorded” adds a separate entry of the source. Where a SMILES comes first, the peptide text is derived from it. The star is where a group is joined. Cbz = O=C(OCc1ccccc1)*
Tests used:
Type in all cases: cell-based
[1] = test system: Raji Burkitt's lymphoma cells; experiment: Bortezomib-induced killing, with or without Salubrinal
[2] = test system: diffuse B-cell lymphoma U937 cells; experiment: as above; settings: 4 nM Bortezomib
RPMI8226 cells [3] = experiment: Cell cycle analysis by propidium iodide staining and flow cytometry; settings: for cell death (sub-G0 population): MG-132 400 nM or Bortezomib 4 nM, 24-48 hours
Protocol: (§1) Reagents, antibodies, RT-PCR, cell lines and tissue culture, plasmids. Proteasome inhibitor (MG-132, Velcade®; each commercially available) treatments were performed using 400 nM MG-132 or 4 nM Bortezomib (Velcade®) for 24 hours. The drug was then removed by serial washes with PBS and the remaining viable cells were replated. Salubrinal treatments were performed using the drug at 5 or 10 μg/ml, as indicated, for 24 hours. RPMI8226 cells contain a c-MYC insertion on t(16;22)(q32;q11):der16; U266B1 cells (t(11;14)) were from ATCC. Cells were cultured according to ATCC recommendations. Antibodies (identified by the antigen specifically recognized): p-Rb, Rb, p-eIF2α, eIF2α, GCN2, p-GCN2, p-PKR and PKR from Cell Signaling (Beverly, Mass.), p-PERK and PERK from Santa Cruz Biotechnology (Santa Cruz, Calif.), BiP from BD (San Jose, Calif.), GAPDH from Calbiochem (Beverly, Mass.), and β-tubulin from Abcam (Cambridge, Mass.). Total RNA was extracted using Trizol (Invitrogen, Carlsbad, Calif.). Primer sequences were published previously (Sequeira, et al., PLoS ONE 2(7):e615 2007, incorporated herein by reference in its entirety). The pCLBabe-eIF2αS51D plasmid was provided by Dr. David Schubert (Salk Institute, La Jolla, Calif.) and can be constructed using known techniques. Transfection of RPMI8226 cells was performed using Amaxa technology according to the manufacturer's instructions (Gaithersburg, Md.).
Cell cycle analysis, label retention assay. Cell cycle analysis was performed using propidium iodide (PI)/RNAse staining buffer from BD according to the manufacturer's instruction. For label retention and viability quantification, cells were treated with proteasome inhibitors or DMSO for 24 hours, then stained with 50 nM CFDA/SE (Molecular Probes, Eugene, Oreg.) for 15 minutes and replated. Prior to analysis, cells were stained using Hoechst-33342 (10 μg/ml) for 15 minutes at 4° C. to determine cell viability. Cells were then fixed using 3% paraformaldehyde for 20 minutes and analyzed by flow cytometry (LSR-II from BD).

HEp3 HNSCC cells = experiment: Bortezomib-induced killing, with or without Salubrinal
[4] = test system: K-562 chronic myeloid leukemia cells; experiment: as above
RPMI8226 cells [5] = experiment: Viability assay (trypan blue)
Protocol: as §1, with “Salubrinal treatments were performed using the drug at 5 or 10 μg/ml, as indicated, for 24 hours.” left out
(§2) Viability assay, Immunoblotting. Cell viability was assessed using trypan blue. Immunoblotting was performed using convention techniques, as described previously Aguirre-Ghiso, et al., Cancer Res. 63(7):1684-1695 2003, incorporated herein by reference in its entirety.

eIF2α = experiment: Western blot for eIF2α phosphorylation in RPMI8226 cells; settings: for eIF2α phosphorylation: single agent, acute phase (Salubrinal 8 hours; MG-132 8-24 hours)
Protocol: as §1, with “Salubrinal treatments were performed using the drug at 5 or 10 μg/ml, as indicated, for 24 hours.” left out
as §2
(§3) Image quantification and statistical analysis. Image quantification was performed using ImageJ from NIH. Statistical analyses were performed using Prism 4.0 from GraphPad Software (La Jolla, Calif.) and the Student's t-test.

U937 cells = experiment: Bortezomib-induced killing, with or without Salubrinal
U266B1 cells = experiment: Viability assay (trypan blue); settings: Salubrinal combined with MG-132 or Bortezomib, 24 hours
Protocol: as §1, with “Transfection of RPMI8226 cells was performed using Amaxa technology according to the manufacturer's instructions (Gaithersburg, Md.).” left out
Viability assay, Immunoblotting. Cell viability was assessed using trypan blue. […]

CHOP mRNA = experiment: RT-PCR for CHOP mRNA in RPMI8226 cells; settings: acute combination of Salubrinal and Bortezomib (4 nM, 8 hours)
Protocol: as §1, with “Proteasome inhibitor (MG-132, Velcade®; each commercially available) treatments were performed using 400 nM MG-132 or 4 nM Bortezomib (Velcade®) for 24 hours.” left out, “Salubrinal treatments were performed using the drug at 5 or 10 μg/ml, as indicated, for 24 hours.” left out
as §3

[6] = Bortezomib combined with Salubrinal

Row | Compound | induction of killing ([1]; Bortezomib alone) | sensitivity to Bortezomib [2] | cell death (sub-G0 population) (RPMI8226 cells [3]) | induction of killing (HEp3 HNSCC cells; Bortezomib alone) | sensitivity to Bortezomib ([4]; 4 nM Bortezomib) | number of cells in G0-G1 in cells surviving proteasome inhibition (RPMI8226 cells [3]; MG-132 400 nM or Bortezomib 4 nM for 24 hours, then washout, control about 35%) | absolute number of viable cells after drug washout and replating (RPMI8226 cells [5]; RPMI8226, 400 nM MG-132 for 24 hours, then washed) | eIF2α phosphorylation (eIF2α) | induction of killing [1, 6] | enhancement of Bortezomib-induced killing by Salubrinal (U937 cells) | cell death (U266B1 cells) | induction of killing (HEp3 HNSCC cells; [6]) | basal viability or growth (RPMI8226 cells [5]; RPMI8226, 5 μM Salubrinal alone) | cell death (RPMI8226 cells [5]; RPMI8226, Salubrinal combined with MG-132 or Bortezomib, 24 hours) | reduction in the number of viable cells (RPMI8226 cells [5]; arrested cells surviving proteasome inhibition, 5 μM Salubrinal, 24 hours) | enhancement of Bortezomib-induced killing by Salubrinal [4] | p-eIF2α levels (eIF2α; Salubrinal combined with proteasome inhibitor, 8 hours) | CHOP mRNA (CHOP mRNA)
1 | CC(C)C[C@H](NC(=O)[C@H](Cc1ccccc1)NC(=O)c1cnccn1)B(O)O [Bortezomib] | neither Bortezomib alone nor its combination with Salubrinal was effective | highly sensitive | strongly induced cell death | neither Bortezomib alone nor its combination with Salubrinal was effective | intermediately sensitive | – | – | – | – | – | – | – | – | – | – | – | – | –
2 | CC(C)C[C@@H](C=O)NC(=O)[C@H](CC(C)C)NC(=O)[C@H](CC(C)C)NC(=O)OCc1ccccc1 [MG-132] (Cbz-Leu-Leu-Leu-aldehyde) | – | – | strongly induced cell death | – | – | 55-65% | remained constant for 7 days | increased eIF2α-phosphorylation | – | – | – | – | – | – | – | – | – | –
3 | O=C(/C=C/c1ccccc1)NC(NC(=S)Nc1cccc2cccnc12)C(Cl)(Cl)Cl (centres unmarked) [Salubrinal] | – | – | – | – | – | – | – | increased phosphorylation of eIF2α | neither Bortezomib alone nor its combination with Salubrinal was effective | neither of these cell lines was susceptible | 70-90% | neither Bortezomib alone nor its combination with Salubrinal was effective | no significant induction of cell death; also recorded: no effect | 70-90% | approximately 10 fold | neither of these cell lines was susceptible | highest levels of p-eIF2α | strong induction

— patent US20120142634A1, “Method of Treating Cancer with a Combination of a Proteasome Inhibitor and Salubrinal” (MOUNT SINAI SCHOOL OF MEDICINE OF NEW YORK UNIVERSITY, priority 2008, published 2012)
